Experimental findings from patent publication US5750531A, “Pyrimidine derivatives and processes for the preparation thereof” (Yuhan Corporation, priority 1994, dated 1998) are described below.

One assay has as its system gastric secretion. Nature of the assay: Inhibition of gastric secretion (pylorus ligation, Shay method). Type of assay: in vivo, Male Sprague-Dawley rats. The settings on record: 20 mg/kg intraduodenally, 5 hours; for Rel. Conc.: acid concentration relative to omeprazole; for Relative Acid Output: acid output relative to omeprazole; for Rel. Vol.: gastric juice volume relative to omeprazole. A digest of the protocol:
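Rats under ether anaesthesia had the pylorus ligated, and the stomach was removed 5 h later. Gastric juice was centrifuged at 1,000 g, and its volume and acidity were measured. Relative volume, relative acid concentration and relative acid output […] were then calculated.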

In assay [1] the target is proton pump(H^+ /K^+ ATPase). Nature of the assay: Inhibition of proton pump(H^+ /K^+ ATPase) activity. Type of assay: biochemical. The settings on record: pH 6.0, 37° C., 30 minutes preincubation and 30 minutes reaction; read-out: IC50 Test compound. A digest of the protocol: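 Enzyme was preincubated with compound at five concentrations for 30 min at 37° C in Tris-HCl pH 6.0 with Mg2+, K+ and NH4Cl. Reaction ran 30 min at 37° C with ATP and was stopped with trichloroacetic acid. K+-stimulated inorganic phosphate release gave IC50 by Litchfield-Wilcoxon.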

Where a name gives a salt, the structure may show the parent alone.

As a reminder, the IC50 is the midpoint of a concentration-inhibition curve. Take `Cc1cc(N2CCc3ccsc3C2C)nc(Nc2ccc(F)cc2)n1.Cl` (centres unmarked) [Example 53, 6-methyl-4-(7-methyl-4,5,6,7-tetrahydrothieno[2,3-c]pyridin-6-yl)-2-(4-fluorophenylamino)pyrimidine hydrochloride]: in the assay with gastric secretion, the Rel. Conc. turned out to be 1.14, the “Relative Acid Output” value came to 0.55 and the Rel. Vol. is 0.47. For the same compound, the IC50 in assay [1] was 2.1 µM.

Turning to `Cc1cc(N2CCc3ccsc3C2C)nc(N(C)c2ccccc2)n1.Cl` (centres unmarked) [Example 54, 6-methyl-2-(N-methylphenylamino)-4-(7-methyl-4,5,6,7-tetrahydrothieno[2,3-c]pyridin-6-yl)pyrimidine hydrochloride], in the assay on gastric secretion, the Rel. Conc. came to 0.23, the “Relative Acid Output” value is 0.75 and the Rel. Vol. stood at 0.86. Besides, the IC50 in assay [1] is 20.6 µM.

For `Cc1cc(F)ccc1Nc1nc(C)c(C)c(N2CCc3ccsc3C2C)n1.Cl` (centres unmarked) [Example 55, 5,6-dimethyl-2-(2-methyl-4-fluorophenylamino)-4-(7-methyl-4,5,6,7-tetrahydrothieno[2,3-c]pyridin-6-yl)pyrimidine hydrochloride], in the assay with gastric secretion, the Rel. Conc. amounted to 0.11, the “Relative Acid Output” value turned out to be 0.51 and the Rel. Vol. was found to be 0.56. The IC50 in assay [1] was found to be 2.1 µM.

Take `Cc1cc(Nc2ccc(F)cc2C)nc(N2CCc3ccccc3C2C)n1.Cl` (centres unmarked) [Example 57, 6-methyl-4-(2-methyl-4-fluorophenylamino)-2-(1-methyl-1,2,3,4-tetrahydroisoquinolin-2-yl)pyrimidine hydrochloride]: in the assay with gastric secretion, the Rel. Conc. amounted to 0.27, the “Relative Acid Output” value worked out at 0.61 and the Rel. Vol. came out at 1.2. Besides, in assay [1], the IC50 was 3.3 µM.

On to `Cc1cc(Nc2ccc(F)cc2)nc(N2CCc3ccccc3C2C)n1.Cl` (centres unmarked) [Example 58, 6-methyl-4-(4-fluorophenylamino)-2-(1-methyl-1,2,3,4-tetrahydroisoquinolin-2-yl)pyrimidine hydrochloride], for which, in the assay with gastric secretion, the Rel. Conc. is 0.16, the “Relative Acid Output” value is 0.35 and the Rel. Vol. came to 0.58. In assay [1], the IC50 was above 25 µM.

Consider `Cc1cc(Nc2ccc(F)cc2C)nc(N2CCc3ccsc3C2C)n1.Cl` (centres unmarked) [Example 59, 6-methyl-4-(2-methyl-4-fluorophenylamino)-2-(7-methyl-4,5,6,7-tetrahydrothieno[2,3-c]pyridin-6-yl)pyrimidine hydrochloride], for which, in the assay on gastric secretion, the Rel. Conc. was found to be 0.25, the “Relative Acid Output” value came out at 0.56 and the Rel. Vol. came to 0.51. For the same compound, the IC50 in assay [1] was around 12.5 µM.

Turning to `Cc1cc(Nc2ccc(F)cc2)nc(N2CCc3ccsc3C2C)n1.Cl` (centres unmarked) [Example 60, 6-methyl-4-(4-fluorophenylamino)-2-(7-methyl-4,5,6,7-tetrahydrothieno[2,3-c]pyridin-6-yl)pyrimidine hydrochloride], in the assay with gastric secretion, the Rel. Conc. is 0.28, the “Relative Acid Output” value amounted to 0.65 and the Rel. Vol. was 0.65. Further, the IC50 in assay [1] was around 15 µM.

Regarding `CCc1cc(Nc2ccc(F)cc2C)nc(N2CCc3ccccc3C2C)n1.Cl` (centres unmarked) [Example 61, 6-Ethyl-4-(2-methyl-4-fluorophenylamino)-2-(1-methyl-1,2,3,4-tetrahydroisoquinolin-2-yl)pyrimidine hydrochloride], in the assay with gastric secretion, the Rel. Conc. amounted to 0.22, the “Relative Acid Output” value turned out to be 0.40 and the Rel. Vol. was found to be 0.32. Moreover, the IC50 in assay [1] was around 12.5 µM.

For the compound `CCc1cc(Nc2ccc(F)cc2C)nc(N2CCc3ccccc3C2)n1.Cl` [Example 62, 6-ethyl-4-(2-methyl-4-fluorophenylamino)-2-(1,2,3,4-tetrahydroisoquinolin-2-yl)pyrimidine hydrochloride], in the assay on gastric secretion, the Rel. Conc. was 0.31, the “Relative Acid Output” value is 0.67 and the Rel. Vol. was determined as 0.61. Moreover, the IC50 in assay [1] was above 20 µM.

For `CCc1cc(Nc2ccc(F)cc2)nc(N2CCc3ccccc3C2)n1.Cl` [Example 63, 6-ethyl-4-(4-fluorophenylamino)-2-(1,2,3,4-tetrahydroisoquinolin-2-yl)pyrimidine hydrochloride], in the assay with gastric secretion, the Rel. Conc. stood at 0.33, the “Relative Acid Output” value was found to be 0.72 and the Rel. Vol. worked out at 0.69. For the same compound, in assay [1], the IC50 is around 12 µM.

As for `CCc1cc(N(C)c2ccccc2)nc(N2CCc3ccccc3C2)n1.Cl` [Example 64, 6-ethyl-4-(N-methylphenylamino)-2-(1,2,3,4-tetrahydroisoquinolin-2-yl)pyrimidine hydrochloride], in the assay with gastric secretion, the Rel. Conc. amounted to 0.26, the “Relative Acid Output” value turned out to be 0.40 and the Rel. Vol. was found to be 0.34. Moreover, in assay [1], the IC50 is around 10 µM.

`Cc1cc(F)ccc1Nc1nc(N2CCc3ccccc3C2C)nc(C)c1C.Cl` (centres unmarked) [Example 65, 5,6-dimethyl-4-(2-methyl-4-fluorophenylamino)-2-(1-methyl-1,2,3,4-tetrahydroisoquinolin-2-yl)pyrimidine hydrochloride]: in the assay on gastric secretion, the Rel. Conc. worked out at 0.35, the “Relative Acid Output” value worked out at 0.71 and the Rel. Vol. came out at 1.43. For the same compound, the IC50 in assay [1] was found to be 1 µM.

In the case of `Cc1cc(F)ccc1Nc1nc(N2CCc3ccccc3[C@H]2C)nc(C)c1C.Cl` [Example 66, (R)-5,6-dimethyl-4-(2-methyl-4-fluorophenylamino)-2-(1-methyl-1,2,3,4-tetrahydroisoquinolin-2-yl)pyrimidine hydrochloride], in the assay on gastric secretion, the Rel. Conc. came out at 0.47, the “Relative Acid Output” value was determined as 0.85 and the Rel. Vol. is 1.49. The IC50 in assay [1] was 0.9 µM.

Turning to `Cc1cc(F)ccc1Nc1nc(N2CCc3ccccc3[C@@H]2C)nc(C)c1C.Cl` [Example 67, (S)-5,6-dimethyl-4-(2-methyl-4-fluorophenylamino)-2-(1-methyl-1,2,3,4-tetrahydroisoquinolin-2-yl)pyrimidine hydrochloride], in the assay with gastric secretion, the Rel. Conc. was 0.31, the “Relative Acid Output” value turned out to be 0.62 and the Rel. Vol. is 1.36. Further, in assay [1], the IC50 amounted to 1.3 µM.

`Cc1nc(N2CCc3ccccc3C2C)nc(Nc2ccc(F)cc2)c1C.Cl` (centres unmarked) [Example 68, 5,6-dimethyl-4-(4-fluorophenylamino)-2-(1-methyl-1,2,3,4-tetrahydroisoquinolin-2-yl)pyrimidine hydrochloride]: in the assay with gastric secretion, the Rel. Conc. is 0.23, the “Relative Acid Output” value came to 0.67 and the Rel. Vol. was 1.52. Also, the IC50 in assay [1] was determined as 3.1 µM.

`Cc1nc(N2CCc3ccccc3[C@H]2C)nc(Nc2ccc(F)cc2)c1C.Cl` [Example 69, (R)-5,6-dimethyl-4-(4-fluorophenylamino)-2-(1-methyl-1,2,3,4-tetrahydroisoquinolin-2-yl)pyrimidine hydrochloride]: in the assay on gastric secretion, the Rel. Conc. is 0.39, the “Relative Acid Output” value is given as 0.76 and the Rel. Vol. was found to be 1.61. Moreover, the IC50 in assay [1] is 2.9 µM.

As for `Cc1nc(N2CCc3ccccc3[C@@H]2C)nc(Nc2ccc(F)cc2)c1C.Cl` [Example 70, (S)-5,6-dimethyl-4-(4-fluorophenylamino)-2-(1-methyl-1,2,3,4-tetrahydroisoquinolin-2-yl)pyrimidine hydrochloride], in the assay on gastric secretion, the Rel. Conc. is 0.22, the “Relative Acid Output” value amounted to 0.61 and the Rel. Vol. came to 1.3. Further, in assay [1], the IC50 came to 3.5 µM.

On to `Cc1cc(F)ccc1Nc1nc(N2CCc3ccccc3C2)nc(C)c1C.Cl` [Example 74, 5,6-dimethyl-4-(2-methyl-4-fluorophenylamino)-2-(1,2,3,4-tetrahydroisoquinolin-2-yl)pyrimidine hydrochloride], for which, in the assay with gastric secretion, the Rel. Conc. amounted to 1.49, the “Relative Acid Output” value turned out to be 1.16 and the Rel. Vol. is 1.22. For the same compound, the IC50 in assay [1] was 0.5 µM.

Take `Cc1cc(F)ccc1Nc1nc(N2CCc3ccsc3C2C)nc(C)c1C.Cl` (centres unmarked) [Example 77, 5,6-dimethyl-4-(2-methyl-4-fluorophenylamino)-2-(7-methyl-4,5,6,7-tetrahydrothieno[2,3-c]pyridin-6-yl)pyrimidine hydrochloride]: in the assay on gastric secretion, the Rel. Conc. was found to be 1.63, the “Relative Acid Output” value is on record as 1.30 and the Rel. Vol. was 1.48. In addition, the IC50 in assay [1] turned out to be 3.6 µM.

As for `Cc1nc(N2CCc3ccsc3C2C)nc(Nc2ccc(F)cc2)c1C.Cl` (centres unmarked) [Example 78, 5,6-dimethyl-2-(7-methyl-4,5,6,7-tetrahydrothieno[2,3-c]pyridin-6-yl)-4-(4-fluorophenylamino)pyrimidine hydrochloride], in the assay with gastric secretion, the Rel. Conc. worked out at 1.75, the “Relative Acid Output” value is on record as 1.09 and the Rel. Vol. was determined as 1.06. Moreover, the IC50 in assay [1] stood at 8.5 µM.

For the compound `Cc1cc(F)ccc1Nc1nc(N2CCc3ccccc3C2C)nc2c1CCC2` (centres unmarked) [Example 81, hydrochloride], in the assay on gastric secretion, the Rel. Conc. was 0.47, the “Relative Acid Output” value is 0.68 and the Rel. Vol. was 0.56. For the same compound, the IC50 in assay [1] amounted to 0.4 µM.

On to `Cc1cc(F)ccc1Nc1nc(N2CCc3ccccc3C2C)nc2c1CCCC2.Cl` (centres unmarked) [Example 82, 4-(2-Methyl-4-fluorophenylamino)-2-(1-methyl-1,2,3,4-tetrahydroisoquinolin-2-yl)-5,6,7,8-tetrahydroquinazoline hydrochloride], for which, in the assay with gastric secretion, the Rel. Conc. came to 0.59, the “Relative Acid Output” value is on record as 0.79 and the Rel. Vol. was 0.69. Moreover, the 50% inhibitory concentration (IC50) in assay [1] amounted to 1.1 µM.

As for `Cc1cc(F)ccc1Nc1nc(N2CCc3ccccc3C2)nc2c1CCCC2.Cl` [Example 83, 4-(2-methyl-4-fluorophenylamino)-2-(1,2,3,4-tetrahydroisoquinolin-2-yl)-5,6,7,8-tetrahydroquinazoline hydrochloride], in the assay with gastric secretion, the Rel. Conc. stood at 1.29, the “Relative Acid Output” value amounted to 1.13 and the Rel. Vol. was 1.19. The IC50 in assay [1] came out at 1.4 µM.
